Experimental data published in patent US20190262266A1, “FORMULATIONS” (OXY SOLUTIONS AS, priority 2016, published 2019).
Entries after “also recorded” stand apart in the source; their conditions may differ. Where two headings read alike, the source gives them in different places.

How the values were obtained:
human skin fibroblasts [1] = test system: human skin fibroblasts
Method: (§1) Oxygenated medium was prepared using powder cell medium, diluted with Oxy Water prepared according to Example 5. The mixing ratio depended on the desired concentration of dissolved oxygen in the final cell medium. DMEM or DMEM medium without phenol red was used (Sigma Aldrich). The medium was supplied with additives and FBS. The phenol red free cell medium was used for the ROS experiment to avoid disturbance of the fluorescent readings.

human skin fibroblasts [2] = experiment: Reactive oxygen species (ROS) production in human skin fibroblasts (DCFDA); details: 30 min; for ROS, relative fluorescence (×10^3): 5% FBS; for ROS production compared to control: DO 21-35 mg/L, 5% FBS (5% or 10% FBS), control 8.6 mg/L
Method: as §1
HSFs were seeded at a density of 2.5×10^4 cells/0.32 cm^2 and were grown to confluence overnight. The cells were stained with 20 uM DCFDA solution (2′,7′-dichlorofluorescin diacetate) (DCFDA Cellular ROS Detection Assay Kit, Abcam, Cambridge, UK) and incubated for 45 min at 37° C. protected from light exposure. Control cell medium (5% FBS, dissolved oxygen: 8.6 mg/L), oxygenated cell medium (5% FBS, dissolved oxygen: 21.6, 26.5, 34.9 mg/L) and positive control (500 μM H2O2, 5% FBS, dissolved oxygen: 8.6 mg/L) were added. The cells were incubated at room temperature. The fluorescence was read with an FLx800 plate reader (BioTek, Winooski, USA) with excitation wavelength at 485 nm and emission wavelength 520 nm, 30 min after adding the treatments. The values were corrected for blank readings and presented as relative fluorescence (×10^3). The experiments were repeated using 10% FBS.

human skin fibroblasts [3] = details: DO up to 50 mg/L, DMEM w/1% FBS, control 11 mg/L; for cell viability / number of dead cells compared to control: 4 days; for proliferation compared to control: up to 4 days
Method: as §1
HSFs were seeded at a density of 5×10^4 cells/25 cm^2 and left overnight. The cells were treated with control cell medium (1% FBS, dissolved oxygen: 11 mg/L), oxygenated cell medium (1% FBS, dissolved oxygen: 23, 31, 41, 50 mg/L), or 10% FBS, dissolved oxygen: 10 mg/L. After stimulation, the cells were left at room temperature for 30 min, followed by incubation at 37° C. The treatment was repeated every 24 hours up to 4 days. On day 2, 3 and 4 the cells were harvested; the cell suspension was mixed with trypan blue and live cells were manually counted using a hemocytometer and dead cells were counted using a TC20 Automated cell counter (BioRad, USA). 1% Triton X was used as a positive control for cell death.

## O=O [dissolved oxygen]
Human skin fibroblasts [1]; 33 mg/L DO, DMEM w/10% FBS, 4 h, re-stimulated at 1, 2 and 3 hours
  ATP levels: 113.1 nm ATP/10^5 cells
Human skin fibroblasts [1]; 33 mg/L dissolved oxygen, four hourly stimulations
  levels of ATP: 113.1±10.1 nM ATP/10^5 live cells
Human skin fibroblasts [2]; 21.6 mg/L dissolved oxygen
  ROS, relative fluorescence (×10^3): 9.3±3.4
Human skin fibroblasts [2]; 26.5 mg/L dissolved oxygen
  ROS, relative fluorescence (×10^3): 15.2±4.5
Human skin fibroblasts [2]; 34.9 mg/L dissolved oxygen
  ROS, relative fluorescence (×10^3): 8.9±2.9
Human skin fibroblasts [2]
  ROS production compared to control: did not significantly change; also recorded: no significant increase
Human skin fibroblasts [2]; listed as DO
  ROS production compared to control: no significant differences
Human skin fibroblasts [3]
  cell viability / number of dead cells compared to control: nor did it change the level of cell viability
  proliferation compared to control: did not change cell proliferation
Human skin fibroblasts [3]; listed as DO
  cell viability / number of dead cells compared to control: did not significantly alter the number of dead cells
  proliferation compared to control: did not significantly alter the proliferation rate
